Data on two compounds can be found in patent publication US20110300234A1, “Methods of Treating Tumor Cells Using RHCC Protein, Fragment or Variant” (priority 2008, published 2011).

No end group written: not given here.

The subject of data set [1] is FaDu-cells s.c. in SCID-mice. The experiment in a line: In vivo tumor reduction assay. Details: species or system mouse. From the text:
Mice are palpated and weighed 3 times/week, and euthanized if the tumor diameter exceeded 10 mm or if weight decreased below 80% of starting weight, according to ethical guidelines.

The subject of data set [2] is h-TERT-RPE1 normal epithelial telomerase immortalized cell line. As to the kind of experiment: Fluorometric microculture cytotoxicity assay (FMCA). The format is cell-based, human. Conditions: h-TERT-RPE1, FMCA 72 hr, highest concentration tested 10 μM; read-out: IC50 (95% confidence interval).
Data set [3] relates to RPMI 8226/S myeloma cell line. The description is as above. Type of data set: cell-based, human. The settings on record: FMCA 72 hr, cisplatin concentration, read-out: IC50 (95% confidence interval). The protocol: (§1) FaDu is grown in DMEM and 10% heat-inactivated FBS, 0.1 mM MEM non-essential amino acids, 1.2 mM sodium pyruvate, 24 mM HEPES, with penicillin and streptomycin. MDA 231, a breast cancer cell line, RPMI 8226, a myeloma cell line, its resistant sub-line 8226/Dox40, NCI-H69, a small lung cancer cell line, its resistant sub-line H69AR, ACHN, a primary resistant renal adenocarcinoma, the ovarian carcinoma cell line A2780, and its resistant sub-line, A2780-Cis, are all grown in RPMI-1640 with 10% heat-inactivated FCS, 2 mM glutamine, penicillin and streptomycin. hTERT-RPE1 a normal epithelial telomerase immortalized line is grown in DMEM nutrient mixture F-12 Ham with 10% heat-inactivated FCS, 2 mM glutamine, penicillin and streptomycin. Tumor cells obtained from 3 ovarian carcinoma patients (OC1-OC3) after ethical approval (Uppsala University ethical committee) are isolated by collagenase dispersion and Percoll density gradient centrifugation (GE Healthcare Life Sciences, Uppsala, Sweden) (see Csoka et al, Gynecol. Oncol., 54(2):163-70 (1994)). […] For experiments, frozen cells are thawed, washed twice and kept in RPMI 1640.
(§2) Microtitre plates (Nunc, Roskilde, Denmark) are prepared with 20 μl/well of drug solution 10 times the desired concentration. To evaluate the cytotoxic activity, the drug plates are seeded with 2×10^4 cells/180 μl/well. A column without drugs serves as a control, and a column with medium serves as a blank FMCA is based on measurements of fluorescence generated from hydrolysis of fluorescein diacetate (FDA) to fluorescein by cells with intact plasma membrane (see Larsson et al, Int. J. Cancer, 50(2):177-85 (1992)). The plates are incubated at 37° C. for 72 hr, washed in PBS, whereafter FDA (dissolved in PBS, 10 μg/ml) is added at 100 μl/well. Plates are then incubated for 50 min, and fluorescence/well is measured at 538 nm in a scanning fluorometer (Fluoroscan II, Labsystems Oy, Helsinki, Finland). Fluorescence is proportional to the number of viable cells/well. Quality criteria for successful analysis includes a fluorescence signal in control wells of more than 5 times mean blank value and a mean coefficient of variation in control wells of less than 30%. Experiments were repeated 3 times.
(§3) FMCA data is processed by GraphPad Prism (GraphPad Software, Inc. San Diego, Calif.) with non-linear regression to a standard sigmoidal dose-response model. Zero and 100% cell survival are set as the maximum effect and the baseline, and IC50 (inhibitory concentration 50%) is estimated. For drugs not resulting in 50% reduction of cell survival, the IC50 was set to>the highest concentration tested.

The subject of data set [4] is H69AR resistant small-cell lung cancer sub-line. Described as above. The format is cell-based, human. The settings on record: FMCA 72 hr, cisplatin concentration, read-out: IC50 (95% confidence interval). The protocol: as §1, §2, §3
Data set [5] has as its system ACHN renal adenocarcinoma cell line. The data set is described as above. The format is cell-based, human. The settings on record: FMCA 72 hr, cisplatin concentration, read-out: IC50 (95% confidence interval). The protocol:
as §1, §2, §3

In data set [6] the test system is FaDu head and neck squamous cell carcinoma cell line. The data set is described as above. The format is cell-based, human. Conditions: FMCA 72 hr, cisplatin concentration, read-out: IC50 (95% confidence interval). The protocol: as §1, §2, §3
The test system of data set [7] is A2780cis resistant ovarian carcinoma sub-line. The description is as above. The format is cell-based, human. The settings on record: FMCA 72 hr, highest concentration tested 10 μM, read-out: IC50 (95% confidence interval). The protocol:
as §1, §2, §3

Data set [8] has as its system MDA 231 breast cancer cell line. The description is as above. Type of data set: cell-based, human. Conditions: MDA 231, FMCA 72 hr, cisplatin concentration; read-out: IC50 (95% confidence interval). The protocol: as §1, §2, §3
Data set [9] concerns NCI-H69 small-cell lung cancer cell line. The data set is described as above. Type of data set: cell-based, human. Conditions: NCI-H69, FMCA 72 hr, highest concentration tested 10 μM; read-out: IC50 (95% confidence interval). The protocol: as §1, §2, §3
Data set [10] has as its system 8226/dox40 resistant myeloma sub-line. The data set is described as above. Type of data set: cell-based, human. Conditions: 8226/dox40, FMCA 72 hr, cisplatin concentration; read-out: IC50 (95% confidence interval). The protocol: as §1, §2, §3
Data set [11] concerns A2780 ovarian carcinoma cell line. The data set is described as above. Type of data set: cell-based, human. The settings on record: A2780, FMCA 72 hr, highest concentration tested 10 μM; read-out: IC50 (95% confidence interval). The protocol:
as §1, §2, §3

Data set [12] concerns RHCC-specific antibodies in Balb/c-mice. As to the kind of experiment: ELISA of antibody response to RHCC in sera. The format is in vivo, mouse. The settings on record: 14 days after i.v. 0.4 or 0.2 mg RHCC. The protocol: The antibody response to RHCC in sera from Balb/c-mice collected 14 days after i.v. injection of 0.4 or 0.2 mg RHCC (2 mice/group), or 0.1 M NaCl (one mouse), is measured by ELISA. Microtitre plates (BD Biosciences, San Diego, Calif., USA) are coated with 5 μg/ml RHCC in 0.1 M carbonate-buffer pH 9.6 per well o.n. at 4° C. Plates are blocked in blocking solution (5% milk powder, 0.2% Tween in PBS) for 1 hr at room temperature. Serial dilutions of mouse sera in blocking solution (1:50-1:1350) is added in duplicates to the wells. After 1 hr at room temperature, plates are washed and incubated with secondary alkaline phosphatase (AP) conjugated goat-anti mouse IgG antibody (Sigma-Aldrich, Stockholm, Sweden). Plates are washed and developed with nitrophenylphosphate (pNPP) (Sigma-Aldrich, Stockholm, Sweden) and absorbance is measured at 405 nm in a VersaMax microplate reader (Molecular Devices, Sunnyvale, Calif., USA).
(In general: An ELISA detects its analyte on a solid surface through an enzyme-linked reagent.)

In data set [13] the test system is IFNγ-secreting splenocytes of Balb/c-mice. The experiment in a line: IFN-γ EliSpot assay of splenocytes after RHCC injection. Conditions: 7 days after i.v. 0.4 or 0.2 mg RHCC.
The subject of data set [14] is primary human tumor cells from ovarian carcinoma patients (OC1-OC3). As to the kind of experiment: FMCA in primary human tumor cells. Conditions: cell lines and patient samples tested. Type of data set: cell-based. The protocol: (§4) FaDu is grown in DMEM and 10% heat-inactivated FBS, 0.1 mM MEM non-essential amino acids, 1.2 mM sodium pyruvate, 24 mM HEPES, with penicillin and streptomycin. […]
as §2, with “To evaluate the cytotoxic activity, the drug plates are seeded with 2×10^4 cells/180 μl/well.” left out, “The plates are incubated at 37° C. for 72 hr, washed in PBS, whereafter FDA (dissolved in PBS, 10 μg/ml) is added at 100 μl/well.” left out, “Experiments were repeated 3 times.” left out

Data set [15] concerns Balb/c mice. The experiment in a line: Tolerability in mice after RHCC injection. Conditions: after injection with endotoxin purified RHCC.
The conditions of data set [16]: background statement; cited from earlier work.
For data set [17], the system named is 10 cell lines. The experiment in a line: FMCA, statements over the panel of cell lines. Type of data set: cell-based, human. The settings on record: tested concentrations, starting at 3.48 μM, all cell types. The protocol: as §4
as §2, with “To evaluate the cytotoxic activity, the drug plates are seeded with 2×10^4 cells/180 μl/well.” left out, “The plates are incubated at 37° C. for 72 hr, washed in PBS, whereafter FDA (dissolved in PBS, 10 μg/ml) is added at 100 μl/well.” left out, “Experiments were repeated 3 times.” left out

The subject of data set [18] is murine dendritic cells. The experiment in a line: Dendritic cell (DC) maturation assay. The format is cell-based, mouse. Conditions: 50 μg/ml RHCC, 24 hr, vs unstimulated cells. The protocol:
Murine bone marrow-derived dendritic cells (BMDCs) are generated according to Lutz et al, J. Immunol. Methods, 223(1):77-92 (1999), and murine splenic DCs are purified using CD11c (N418) MicroBeads (Miltenyi Biotec, Auburn, Calif., USA) according to the manufacturer. DCs are seeded in 24-well plates (BD Biosciences, San Diego, Calif., USA) at 10^6 cells/ml in R10 medium and mixed with 50 μg/ml RHCC. LPS 1 μg/ml (Sigma-Aldrich, Stockholm, Sweden) is used as positive control. After 24 hr stimulation, DCs are stained with PE-conjugated antibodies to CD40, CD80 and CD86 and FITC-conjugated antibody to MHC Class II I-Ab (BD Biosciences Pharmingen, San Diego, Calif., USA) 30 min at 4° C., washed twice in PBS with 0.1% BSA and analyzed by flow cytometry. IL-12 production is analyzed by ELISA according to the manufacturer (Mabtech, Nacka, Sweden). Plates are coated with 2 μg/ml of anti-IL-12 capture antibody o.n, then after blocking, 100 μl of BMDC culture supernatants are added at dilutions 1:1-1:128 for 2 hr at RT. Plates are thereafter incubated with biotinylated anti-IL-12 antibody 1 hr at room temperature, and the response is visualized as above for ELISA.

On to `N.N.[Cl][Pt][Cl]` [Cisplatin, Cis-diammine-dichloroplatinum (II)], for which the alteration in weight result in [1] (i.v., during the experiment) is “no significant alteration in weight”. Besides, the IC50 in [2] is over 10 µM; in data set [3] it was 7.44 µM; in data set [4], 8.5 µM; in data set [5], 6.9 µM; in [6], 7.9 µM; in [7] it was over 10 µM. Besides, the IC50 in [8], in [9], in data set [10] and in data set [11] was over 10 µM in each case.
On to “RHCC: Recombinant Right-Handed Coiled-Coil protein tetramer of Tetrabrachion (Staphylothermus marinus), strands of SEQ ID NO:1, purified from endotoxins (GSIINETADDIVYRLTVIIDDRYESLKNLITLRADRLEMIINDNVSTILASI; also: tetramer)”, for which, in data set [12], the “RHCC-specific antibody response (ELISA)” value was “no significant antibody response”. In addition, the “IFNγ-EliSpot T cell response” value in data set [13] is given as “slight production of specific CD8+ T cells”. In addition, the “cytotoxic effect of RHCC alone” value in [14] is “no cytotoxic effect”. In [15], the “signs of illness (viability, weight)” value is “no signs of illness”. The “temperature at which stable” value in data set [16] was “over 100 °C”. Besides, the “tumor reduction, RHCC alone” value in data set [1] (0.675 mg RHCC, separate experiment) was “no effect on tumor reduction”. For the same compound, in data set [17], the “toxicity of RHCC alone” value is “nontoxic”. Also, in data set [18], the CD40 expression result is recorded as “weak increase”; the IL-12 production entry is “weak increase”; the “maturation markers CD80, CD86 and MHC Class II” value is on record as “no increase”.

Broadly, the IC50 is the concentration needed to halve the response being measured.
